Target: T1, full-length human PKCι (Homo sapiens, UniProt P41743)
T1 construct: Recombinant, full-length human PKCι expressed in Sf21 insect cells is also commercially available; purchased; host or cells: Sf21 insect cells
T1 sequence (P41743 1-596): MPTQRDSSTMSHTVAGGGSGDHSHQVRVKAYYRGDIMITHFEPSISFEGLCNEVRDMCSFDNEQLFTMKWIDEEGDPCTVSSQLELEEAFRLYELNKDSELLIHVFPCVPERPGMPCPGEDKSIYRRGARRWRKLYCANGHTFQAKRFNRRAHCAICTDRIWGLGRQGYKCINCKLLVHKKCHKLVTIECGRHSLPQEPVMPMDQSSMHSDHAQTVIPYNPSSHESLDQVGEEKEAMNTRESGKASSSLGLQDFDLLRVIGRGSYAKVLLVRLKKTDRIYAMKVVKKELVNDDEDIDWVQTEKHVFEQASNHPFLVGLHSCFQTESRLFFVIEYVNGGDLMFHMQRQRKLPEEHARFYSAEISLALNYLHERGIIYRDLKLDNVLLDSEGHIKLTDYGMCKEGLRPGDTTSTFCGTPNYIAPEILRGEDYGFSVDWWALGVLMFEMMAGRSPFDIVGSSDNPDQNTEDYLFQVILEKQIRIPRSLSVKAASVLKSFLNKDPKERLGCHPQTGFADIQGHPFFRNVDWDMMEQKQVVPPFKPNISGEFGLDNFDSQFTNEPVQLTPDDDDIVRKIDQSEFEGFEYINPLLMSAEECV
Assay: PKCι IC50 IMAP assay, full-length PKCι at 150 μM ATP
Assay type: biochemical
Conditions: read-out: IC50 in IMAP assay against full length PKCi at 150 μM ATP
How it was run: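 Recombinant full-length human PKCι (Sf21-expressed, typically 15 pM) phosphorylated 100 nM 5FAM-labelled PKCε pseudosubstrate-derived peptide with 150 μM ATP (5× KM^APP) in 18 mM tris-HCl pH7.5, 9 mM MgCl2, EGTA, DTT, 4% DMSO. After 60 min at room temperature, IMAP binding reagent was added for 2 h and fluorescence polarisation read.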

SMILES	IC50 [nM]
C[C@H]1CN(c2nc(-c3ccnc(Nc4ccccc4)c3)nc3cncc(Cl)c23)CCN1 [Example 250, {4-[5-Chloro-4-((S)-3-methyl-piperazin-1-yl)-pyrido[3,4-d]pyrimidin-2-yl]-pyridin-2-yl}-phenyl-amine]	100 to 1000
COCCN1CCN(c2nc(-c3ccnc(Nc4ccc(F)cc4)c3)nc3cncc(C4CC4)c23)CC1 [Example 662, (4-{5-Cyclopropyl-4-[4-(2-methoxy-ethyl]-piperazin-1-yl]-pyrido[3,4-d]pyrimidin-2-yl}-pyridin-2-yl)-(4-fluoro-phenyl)-amine]	1000 to 10000
c1cc(-c2nc(N3CCNCC3)c3c(C4CC4)cncc3n2)cc(NC2CCCCC2)n1 [Example 282, Cyclohexyl-[4-(5-cyclopropyl-4-piperazin-1-yl-pyrido[3,4-d]pyrimidin-2-yl)-pyridin-2-yl]-amine]	< 100
Fc1cccc(Nc2cc(-c3nc(N4CCNCC4)c4c(Cl)cncc4n3)ccn2)n1 [Example 253, [4-(5-Chloro-4-piperazin-1-yl-pyrido[3,4-d]pyrimidin-2-yl)-pyridin-2-yl]-(6-fluoro-pyridin-2-yl)-amine]	< 100
CN1CCN(c2ccc(Nc3cc(-c4nc(N[C@@H]5CCNC5)c5ccncc5n4)ccn3)cn2)CC1 [Example 320, (2-{2-[6-(4-Methyl-piperazin-1-yl)-pyridin-3-ylamino]-pyridin-4-yl}-pyrido[3,4-d]pyrimidin-4-yl)-(R)-pyrrolidin-3-yl-amine]	< 100
Fc1cccc(F)c1-c1cc2c(-c3nc(N4CCNCC4)c4c(C5CCC5)cncc4n3)ccnc2[nH]1 [Example 2144, 5-Cyclobutyl-2-[2-(2,6-difluoro-phenyl)-1H-pyrrolo[2,3-b]pyridin-4-yl]-4-piperazin-1-yl-pyrido[3,4-d]pyrimidine]	< 100
COc1cncc(Nc2cc(-c3nc(N4CCNCC4)c4c(OC)cncc4n3)ccn2)c1 [Example 424, [4-(5-Methoxy-4-piperazin-1-yl-pyrido[3,4-d]pyrimidin-2-yl)-pyridin-2-yl]-(5-methoxy-pyridin-3-yl)-amine]	< 100
COc1cncc2nc(-c3ccncc3)nc(N3CCNC(C(=O)Nc4ccccc4)C3)c12 (stereo not drawn) [Example 156, 4-(5-Methoxy-2-pyridin-4-yl-pyrido[3,4-d]pyrimidin-4-yl)-piperazine-2-carboxylic acid phenylamide]	1000 to 10000
CCOC(=O)N1CCN(c2nc(-c3ccnc4[nH]c(C(F)(F)F)cc34)nc3cncc(C4CC4)c23)CC1 [Example 1224, 4-[5-Cyclopropyl-2-(2-trifluoromethyl-1H-pyrrolo[2,3-b]pyridin-4-yl)-pyrido[3,4-d]pyrimidin-4-yl]-piperazine-1-carboxylic acid ethyl ester]	10000 to 40000
CC(C)[C@H]1CN(c2nc(-c3ccnc(Nc4ccccc4)c3)nc3cncc(C4CC4)c23)CCN1 [Example 275, {4-[5-Cyclopropyl-4-((S)-3-isopropyl-piperazin-1-yl)-pyrido[3,4-d]pyrimidin-2-yl]-pyridin-2-yl}-phenyl-amine]	< 100
Fc1ccccc1C1(c2cc3c(-c4nc(N5CCNCC5)c5c(C6CC6)cncc5n4)ccnc3[nH]2)CC1 [Example 2009, 5-Cyclopropyl-2-{2-[1-(2-fluoro-phenyl)-cyclopropyl]-1H-pyrrolo[2,3-b]pyridin-4-yl}-4-piperazin-1-yl-pyrido[3,4-d]pyrimidine]	< 100
O[C@H]1Cc2ccccc2[C@H]1Nc1cc(-c2nc(N3CCNCC3)c3c(C4CC4)cncc3n2)ccn1 [Example 2142, (1R,2S)-1-[4-(5-Cyclopropyl-4-piperazin-1-yl-pyrido[3,4-d]pyrimidin-2-yl)-pyridin-2-ylamino]-indan-2-ol]	100 to 1000
Fc1cc(F)c(F)c(Nc2cc(-c3nc(N4CCNCC4)c4c(C5CCC5)cncc4n3)ccn2)n1 [Example 786, [4-(5-Cyclobutyl-4-piperazin-1-yl-pyrido[3,4-d]pyrimidin-2-yl)-pyridin-2-yl]-(3,4,6-trifluoro-pyridin-2-yl)-amine]	< 100
c1cc(-c2nc(N[C@@H]3CCNC3)c3ccncc3n2)ccn1 [Example 7, (3R)-N-[2-(pyridin-4-yl)pyrido[3,4-d]-pyrimidin-4-yl]-pyrrolidin-3-amine]	< 100
COc1cncc2nc(-c3ccnc(Nc4cccc(OCC(N)=O)c4)c3)nc(N[C@@H]3CCNC3)c12 [Example 323, 2-(3-{4-[5-Methoxy-4-((R)-pyrrolidin-3-ylamino)-pyrido[3,4-d]pyrimidin-2-yl]-pyridin-2-ylamino}-phenoxy)-acetamide]	< 100
COc1cncc2nc(N3CCOCC3)nc(NC[C@@H](N)Cc3ccccc3)c12 [Example 1002, (S)-N^1-(5-Methoxy-2-morpholin-4-yl-pyrido[3,4-d]pyrimidin-4-yl)-3-phenyl-propane-1,2-diamine]	< 100
COc1cncc2nc(-c3ccnc(N)c3)nc(N3CCNCC3)c12 [Example 208, 4-(5-Methoxy-4-piperazin-1-yl-pyrido[3,4-d]pyrimidin-2-yl)-pyridin-2-ylamine]	< 100
Fc1cc(F)c(Nc2cc(-c3nc(N[C@@H]4CCNC4)c4c(C5CC5)cncc4n3)ccn2)nc1F [Example 2056, {5-Cyclopropyl-2-[2-(3,5,6-tritluoro-pyridin-2-ylamino)-pyridin-4-yl]-pyrido[3,4-d]pyrimidin-4-yl}-(R)-pyrrolidin-3-yl-amine]	< 100
Fc1ccc(Nc2cc(-c3nc(N4CCNCC4)c4c(C5CC5)cncc4n3)ccn2)nn1 [Example 2191, [4-(5-Cyclopropyl-4-piperazin-1-yl-pyrido[3,4-d]pyrimidin-2-yl)-pyridin-2-yl]-(6-fluoro-pyridazin-3-yl)-amine]	< 100
c1ccc(C2(c3cc4c(-c5nc(N6CCNCC6)c6c(C7CC7)cncc6n5)ccnc4[nH]3)CCC2)cc1 [Example 2064, 5-Cyclopropyl-2-[2-(1-phenyl-cyclobutyl)-1H-pyrrolo[2,3-b]pyridin-4-yl]-4-piperazin-1-yl-pyrido[3,4-d]pyrimidine]	< 100
Fc1cc(F)c(Nc2cc(-c3nc(N4CCNCC4)c4c(C5CC5)cncc4n3)ccn2)cn1 [Example 748, [4-(5-Cyclopropyl-4-piperazin-1-yl-pyrido[3,4-d]pyrimidin-2-yl)-pyridin-2-yl]-(4,6-difluoro-pyridin-3-yl)-amine]	< 100
CNCCNC(=O)C1CCN(c2nc(-c3ccnc(Nc4c(F)cccc4F)c3)nc3cncc(C4CC4)c23)CC1 [Example 744, 1-{5-Cyclopropyl-2-[2-(2,6-difluoro-phenylamino)-pyridin-4-yl]-pyrido[3,4-d]pyrimidin-4-yl}-piperidine-4-carboxylic acid (2-methylamino-ethyl)-amide]	< 100
COc1cncc2nc(-c3ccncc3)nc(NC[C@@H](N)Cc3ccccc3)c12 [Example 9, N-[(2S)-2-amino-3-phenylpropyl]-5-methoxy-2-(pyridin-4-yl)pyrido[3,4-d]-pyrimidin-4-amine]	< 100
CNc1nc(-c2ccnc(Nc3ccc(OCCN4CCCC4)cc3)c2)nc2cncc(OC)c12 [Example 501, (5-Methoxy-2-{2-[4-(2-pyrrolidin-1-yl-ethoxy)-phenylamino]-pyridin-4-yl}-pyrido[3,4-d]pyrimidin-4-yl)-methyl-amine]	10000 to 40000
OC1CCN(c2nc(-c3ccnc(Nc4cccc(N5CCOCC5)c4)c3)nc3cncc(C4CC4)c23)CC1 [Example 834, 1-{5-Cyclopropyl-2-[2-(3-morpholin-4-yl-phenylamino)-pyridin-4-yl]-pyrido[3,4-d]pyrimidin-4-yl}-piperidin-4-ol]	< 100
FC(F)(F)C1CN(c2nc(-c3ccncc3)nc3cnccc23)CCN1 (stereo not drawn) [Example 59, 1-[2-(pyridin-4-yl)-pyrido[3,4-d]-pyrimidin-4-yl]-3-(trifluoromethyl)-piperazine]	10000 to 40000
NC(=O)c1ccc(Nc2cc(-c3nc(N4CCNCC4)c4c(C5CC5)cncc4n3)ccn2)nc1 [Example 844, 6-[4-(5-Cyclopropyl-4-piperazin-1-yl-pyrido[3,4-d]pyrimidin-2-yl)-pyridin-2-ylamino]-nicotinamide]	< 100
c1cc(-c2nc(N3CCNCC3)c3c(C4CC4)cncc3n2)cc(NCC2CC2)n1 [Example 629, Cyclopropyl-methyl-[4-(5-cyclopropyl - 4-piperazin-1-yl-pyrido[3,4-d]pyrimidin-2-yl)-pyridin-2-yl]-amine]	< 100
CC(C)(C)c1cc2c(-c3nc(N4CC[C@@H](O)C4)c4c(C5CC5)cncc4n3)ccnc2[nH]1 [Example 1250, (R)-1-[2-(2-tert-Butyl-1H-pyrrolo[2,3-b]pyridin-4-yl)-5-cyclopropyl-pyrido[3,4-d]pyrimidin-4-yl]-pyrrolidin-3-ol]	< 100
O[C@@H]1Cc2ccccc2[C@@H]1Nc1cc(-c2nc(N3CCNCC3)c3c(C4CC4)cncc3n2)ccn1 [Example 2140, (1S,2R)-1-[4-(5-Cyclopropyl-4-piperazin-1-yl-pyrido[3,4-d]pyrimidin-2-yl)-pyridin-2-ylamino]-indan-2-ol]	< 100

From US9914730B2, “Azaquinazoline inhibitors of Atypical protein Kinase C” (Ignyta, Inc., priority 2012, dated 2018)
